{"source": "patent US12357552B2", "about": "“Hydroxyquinoline compounds and methods of use as pigment modifying agents” (priority 2021, dated 2025)", "key": {"[1]": {"target": "mushroom tyrosinase (Agaricus bisporus, UniProt C7FF04)", "sequence (C7FF04 1-392)": "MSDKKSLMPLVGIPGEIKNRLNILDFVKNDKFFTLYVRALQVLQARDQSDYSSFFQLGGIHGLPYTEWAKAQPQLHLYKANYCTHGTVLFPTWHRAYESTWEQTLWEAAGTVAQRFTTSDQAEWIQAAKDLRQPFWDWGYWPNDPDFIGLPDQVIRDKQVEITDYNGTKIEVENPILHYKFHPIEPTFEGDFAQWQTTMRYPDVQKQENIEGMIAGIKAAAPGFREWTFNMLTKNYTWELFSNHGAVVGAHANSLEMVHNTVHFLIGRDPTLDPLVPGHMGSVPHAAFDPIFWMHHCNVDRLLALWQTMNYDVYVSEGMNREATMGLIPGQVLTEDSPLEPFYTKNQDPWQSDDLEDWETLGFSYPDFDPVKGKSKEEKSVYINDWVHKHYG", "test": "fluorescence-based tyrosinase assay with substrate PAP-AMC (monophenolase activity)", "quoted_text": "Enzyme activity was measured using the fluorescent substrate PAP-AMC. […] Fluorescence spectroscopy was carried out on a Carey Eclipse spectrophotometer. Fluorescence intensity was measured at 6-second intervals in quartz cuvettes kept at 37° C. […] In vitro fluorescence assays using mushroom tyrosinase (Worthington Biochemicals) were performed in 50 mM sodium phosphate buffer, pH 7.4 with the fluorescent tyrosinase substrate, PAP-AMC (Biovision). Varying concentrations of inhibitors were used as indicated. Data represent the mean±SD of three independent experiments.\nAfter 5 minute incubation, inhibitor was added as a solution in DMSO. After an additional 2 minute incubation, a DMSO solution of PAP-AMC (0.02 mL of 1 mM solution) was added and, after thoroughly mixing, the reaction was monitored by fluorescence (λ excitation=350 nm; λ emission=440 nm). Initial rates were calculated using the slope of the curve for the first ca. 10% of the reaction. The first 1 min of the reaction were not used owing to the usual induction period observed with tyrosinase. Inhibition assays were performed in triplicate trials. Non-linear regression and curve fitting were done using Prism software (Graphpad Inc). […] The experiment was performed in triplicate at pH 7.4 and data were plotted according to Lineweaver-Burk. Data represent the mean±SD of three independent experiments."}, "[2]": {"tested_on": "MNT-1 cells", "test": "viability assay in MNT-1 cell line", "assay_type": "cell-based, human", "description": "Where Acmpd is the absorbance value for the test compound, and Ap and An are the absorbance values of the positive and negative controls, respectively. FIG. 6 depicts the reduction in melanin biosynthesis in MNT-1 cells by chloroxine, relative to the positive control phenylthiourea (PTU), a tyrosinase inhibitor commonly used as a melanin synthesis blocker. Other hydroxyquinoline drugs caused different effects in the MNT-1 cell line. At higher concentrations, the iodo-substituted compounds clioquinol (3) and iodoquinol (4) were toxic, with decreased cell counts in the viability assay."}, "[3]": {"tested_on": "MNT-1 cells", "test": "inhibition of melanin production in human melanoma MNT-1 cells", "assay_type": "cell-based", "details": "3 days", "experimental": "To assess melanogenesis inhibition within cells, the human melanoma MNT-1 cell line (CRL-3450 from ATCC), cultured and divided according to the recommended protocol, was subjected to varying concentrations of chloroxine (2) and the other hydroxyquinoline drugs. The MNT-1 cell line was chosen because it was previously used successfully for quantifying melanin synthesis (Hah et al., 2012). Frozen stocks (3.8×10^6 cells) of cells were thawed in a 37° C. water bath, then plated into three 10-cm plates containing 10 mL of MDEM+10% fetal bovine serum and 100 μL of 100× Penicillin/Streptomycin. When the cells became confluent, medium was aspirated, cells were rinsed with sterile phosphate-buffered saline (PBS), and then treated with 1 mL of 0.25% trypsin with 0.02% EDTA at 37° C. for 3 min. When the cells became loose, 4 mL of medium was added to neutralize the trypsin. FIG. 5 depicts the inhibition of melanin production in MNT-1 cells by chloroxine, an inhibitor of tyrosinase, at concentrations indicated. Cells were incubated with chloroxine for 3 days and then harvested, with melanin quantified after cell lysis, measuring absorbance at 405 nm. […]\nWhere Acmpd is the absorbance value for the test compound, and Ap and An are the absorbance values of the positive and negative controls, respectively. […]"}, "[4]": {"test": "solubility in aqueous solution under the tyrosinase assay conditions", "details": "higher concentrations"}, "[5]": {"tested_on": "tyrosinase", "details": "cited from earlier work"}, "[6]": {"tested_on": "mushroom tyrosinase", "test": "assessment of reversibility: residual tyrosinase activity after ultrafiltration, with or without exogenous copper sulfate", "assay_type": "biochemical", "details": "5 μM inhibitor", "experimental": "To gain further insight into the mode of action of the hydroxyquinoline drugs, residual enzyme activity was assessed after separation of the drug from the enzyme. This is generally done to assess whether the inhibitor acts in a reversible or irreversible manner. After incubation and measurement of tyrosinase activity, the drug nitroxoline (1) was separated from the reaction mixture in a Centricon centrifugal filter device, and enzymatic activity remeasured with fresh PAPAMC substrate.\nWhen residual activity was measured after ultracentrifugation, less than 10% of the original activity remained (FIG. 4(b)). […]\nTo assess reversibility of enzyme inhibition, a reaction mixture containing 5 μM inhibitor was placed into Amicon Ultra centrifugal filters (10 K MWCO), concentrated at 4000 rpm for 10 minutes, followed by dilution with sodium phosphate buffer for a total of three cycles. If reconstitution of enzyme activity was being evaluated, exogenous copper sulfate was added to the remaining solution to a final concentration of 0.1 mM. Then fresh L-DOPA and PAP-AMC substrate was added and fluorescence change measured as previously described. […]"}}, "note": "pIC50, pKi: −log10 of the molar value. Where two headings read alike, the source gives them in different places.", "data": [{"compound": "Oc1c(Cl)cc(Cl)c2cccnc12", "note": "[chloroxine]", "values": [{"measurement": "pKi", "setting": "[1]", "value": "~4.92"}, {"measurement": "toxicity (cell counts in the viability assay)", "setting": "[2]", "value": "not toxic"}, {"measurement": "ability to block melanin production", "setting": "[3]", "value": "dose-dependent"}, {"measurement": "pIC50", "setting": "[3]; Homo sapiens, 72 h, absorbance at 405 nm, read-out: IC50 value for blocking melanin synthesis", "value": "~5.82"}, {"measurement": "solubility in aqueous solution", "setting": "[4]", "value": "did not show evidence of insolubility"}]}, {"compound": "Oc1c(I)cc(Cl)c2cccnc12", "note": "[clioquinol]", "values": [{"measurement": "pKi", "setting": "[1]", "value": 3.44}, {"measurement": "toxicity (cell counts in the viability assay)", "setting": "[2]", "value": "toxic"}]}, {"compound": "O=c1cc(CO)occ1O", "note": "[kojic acid]", "values": [{"measurement": "inhibition of tyrosinase", "setting": "[5]", "value": "high micromolar"}]}, {"compound": "O=[N+]([O-])c1ccc(O)c2ncccc12", "note": "[nitroxoline]", "values": [{"measurement": "pKi", "setting": "[1]", "value": 6.05}, {"measurement": "type of enzyme inhibition (Lineweaver-Burk)", "setting": "[1]; varying substrate and inhibitor concentrations, pH 7.4", "value": "competitive inhibitor"}, {"measurement": "toxicity (cell counts in the viability assay)", "setting": "[2]", "value": "not toxic"}, {"measurement": "enzyme activity after incubation of the concentrate with exogenous copper sulfate", "setting": "[6]; after ultrafiltration, 0.1 mM copper sulfate", "value": "substantial recovery of original enzyme activity"}, {"measurement": "residual activity after ultracentrifugation, of the original activity", "setting": "[6]; no exogenous copper sulfate", "value": "less than 10%"}]}, {"compound": "iodoquinol", "values": [{"measurement": "inhibitory constant (in words)", "setting": "[1]; monophenolase activity of tyrosinase", "value": "high micromolar"}, {"measurement": "pKi", "setting": "[1]; mushroom tyrosinase, PAP-AMC substrate, pH 7.4", "value": 2.89}, {"measurement": "toxicity (cell counts in the viability assay)", "setting": "[2]; MNT-1 cells, higher concentrations", "value": "toxic"}, {"measurement": "solubility in aqueous solution", "setting": "[4]", "value": "less soluble in aqueous solution"}]}]}
